Assay results: ChEMBL document CHEMBL4831521, “Dual High-Resolution α-Glucosidase and PTP1B Inhibition Profiling Combined with HPLC-PDA-HRMS-SPE-NMR Analysis for the Identification of Potentially Antidiabetic Chromene Meroterpenoids from Rhododendron capitatum” (J Nat Prod, 2021)

Experiments:
Saccharomyces cerevisiae = assay: Inhibition of Saccharomyces cerevisiae alpha-glucosidase at 100 uM using pNPG as substrate preincubated for 10 mins followed by substrate addition and measured for 35 mins by microplate photometric method; conditions: time 45.0 min
[1] = Inhibition of Saccharomyces cerevisiae alpha-glucosidase using pNPG as substrate preincubated for 10 mins followed by substrate addition and measured for 35 mins by microplate photometric method
[2] = target: T1, Tyrosine-protein phosphatase non-receptor type 1 (Homo sapiens, UniProt P18031); assay: Inhibition of human recombinant PTP1B (1 to 322 residues) expressed in Escherichia coli using pNPP as substrate preincubated with substrate for 10 mins followed by enzyme addition and measured for 10 mins by absorbance based analysis
T1 sequence (P18031 whole entry): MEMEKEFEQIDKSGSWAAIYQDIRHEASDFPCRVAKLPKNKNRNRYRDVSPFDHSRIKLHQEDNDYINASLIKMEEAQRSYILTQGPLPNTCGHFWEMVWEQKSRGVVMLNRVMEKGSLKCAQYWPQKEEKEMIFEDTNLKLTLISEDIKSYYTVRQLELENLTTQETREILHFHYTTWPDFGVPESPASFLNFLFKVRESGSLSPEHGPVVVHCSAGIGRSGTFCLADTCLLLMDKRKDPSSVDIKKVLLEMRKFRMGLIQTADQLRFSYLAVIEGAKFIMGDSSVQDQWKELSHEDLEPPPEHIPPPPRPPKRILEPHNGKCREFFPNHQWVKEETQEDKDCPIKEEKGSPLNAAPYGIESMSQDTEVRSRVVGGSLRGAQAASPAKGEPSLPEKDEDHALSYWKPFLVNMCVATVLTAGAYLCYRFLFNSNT

C=C(C)[C@H](O)CC/C(C)=C/CC[C@]1(C)C=Cc2c(cc(C)c(C(=O)O)c2O)O1
inhibition (Saccharomyces cerevisiae): 99.6% | IC50 [1]: 21.2 µM | IC50 [2]: 10.3 µM

CC(C)=CCC[C@](C)(O)[C@H](O)CC[C@]1(C)C=Cc2c(cc(C)c(C(=O)O)c2O)O1 (mixture of isomers)
inhibition (Saccharomyces cerevisiae): -1.8%

CC(C)=CCC/C(C)=C/CC/C(C)=C/Cc1c(O)cc(C)c(C(=O)O)c1O [GRIFOLIC ACID]
inhibition (Saccharomyces cerevisiae): 99.7% | IC50 [1]: 8 µM | IC50 [2]: 3.6 µM

C/C(=C\CC[C@]1(C)C=Cc2c(cc(C)c(C(=O)O)c2O)O1)C/C=C\C(C)(C)O
IC50 [2]: 68.1 µM

Cc1c(O)cc(O)c2c1O[C@H](c1ccc(O)cc1)CC2=O
inhibition (Saccharomyces cerevisiae): 14.4%

Cc1c(O)c(C)c2c(c1O)C(=O)C[C@@H](c1ccc(O)cc1)O2
inhibition (Saccharomyces cerevisiae): 11.2%

C=C(C/C=C/C(C)(C)O)[C@H](O)CC[C@]1(C)C=Cc2c(cc(C)c(C(=O)O)c2O)O1
inhibition (Saccharomyces cerevisiae): 36.9% | IC50 [2]: 28.2 µM

C=C(C)/C=C/C/C(C)=C/CC[C@]1(C)C=Cc2c(cc(C)c(C(=O)O)c2O)O1
inhibition (Saccharomyces cerevisiae): 27.5% | IC50 [2]: 19.9 µM

CC(C)=CCC[C@@](C)(O)[C@H](O)CC[C@]1(C)C=Cc2c(cc(C)c(C(=O)O)c2O)O1 (relative stereo)
inhibition (Saccharomyces cerevisiae): -1.8%

COC(C)(C)[C@H](O)CC/C(C)=C/CC[C@]1(C)C=Cc2c(cc(C)c(C(=O)O)c2O)O1
inhibition (Saccharomyces cerevisiae): 17.2%

C=C(C)[C@H](O)CCC(=C)[C@H](O)CC[C@]1(C)C=Cc2c(cc(C)c(C(=O)O)c2O)O1
inhibition (Saccharomyces cerevisiae): 63.5% | IC50 [1]: 93.5 µM | IC50 [2]: 36.3 µM

CO[C@@](C)(CCC=C(C)C)[C@H](O)CC[C@]1(C)C=Cc2c(cc(C)c(C(=O)O)c2O)O1 (relative stereo)
inhibition (Saccharomyces cerevisiae): 23.8% | IC50 [2]: 53.6 µM

C[C@H]1O[C@H](O[C@H]2[C@H](O)[C@@H](O)[C@@H](O[C@H]3[C@H](O)[C@@H](O)C(O)O[C@@H]3CO)O[C@@H]2CO)[C@H](O)[C@@H](O)[C@@H]1N[C@H]1C=C(CO)[C@@H](O)[C@H](O)[C@H]1O (some centres undefined) [ACARBOSE]
IC50 [1]: 796 µM

CC(C)=CCC/C(C)=C/CC[C@]1(C)C=Cc2c(cc(C)c(C(=O)O)c2O)O1
inhibition (Saccharomyces cerevisiae): 99.9% | IC50 [1]: 10.6 µM | IC50 [2]: 2.5 µM

C=C(CCC=C(C)C)[C@H](O)CC[C@]1(C)C=Cc2c(cc(C)c(C(=O)O)c2O)O1
inhibition (Saccharomyces cerevisiae): 99.8% | IC50 [1]: 18.6 µM | IC50 [2]: 6 µM

CO[C@](C)(CCC=C(C)C)[C@H](O)CC[C@]1(C)C=Cc2c(cc(C)c(C(=O)O)c2O)O1 (mixture of isomers)
inhibition (Saccharomyces cerevisiae): 15.6%
